Experimental findings from patent publication US20210052632A1, “SELECTIVE PARP1 INHIBITORS TO TREAT CANCER” (Cambridge Enterprise Limited, priority 2018, published 2021) are described below.

For data set [1], the target named is T1, human full length active PARP2 (Homo sapiens, UniProt Q9UGN5).
T1 construct: human full length active PARP1 (CS207770, Merck), PARP2 (ab198766, Abeam); purchased Abcam ab198766
The data set is described as follows: PARP inhibitor assay, fluorescence-based, PARP2. Format: biochemical. From the text:
(§1) The PARP inhibitor assay is a direct fluorescence-based concentration measurement of reaction product formation. The assay reagents are sold as a commercial kit (see http://www.merckmillipore.com/GB/en/product/PARP1-Enzyme-Activity-Assay,MM_NF-17-10149). To measure PARP inhibition, the NAD+ substrate concentration should be set at Km (the Michaelis constant) to enable identifications of all types of inhibitors (competitive, uncompetitive and non-competitive (allosteric) (the latter represents a mode of action of Zn-finger inhibitors)), direct calculation of inhibitor potency (Ki) and in vivo modelling. (See in and literature sited therein: Michael G. Acker, Douglas S. Auld. Considerations for the design and reporting of enzyme assays in high-throughput screening applications. Perspectives in Science (2014) 1, 56-73).
(§2) PARP activity and inhibition was measured for human full length active PARP1 (CS207770, Merck), PARP2 (ab198766, Abeam) and PARP3 (ab79638, Abeam) proteins. Inhibitor compounds (Sodium Aurothiomalate and Aurothioglucose, Sigma-Aldrich and Auranofin, Bio-Techne) at different concentrations (1, 10 and 100 nM, 1, 10 and 100 μM final) were added to the reaction buffer, concocted as a 1:1 mixture of Merck kit buffer with 50 mM Tris-HCl, 100 mM NaCl, 5 mM MgCl2, 0.05% Tween-20, pH 8.0, Sigma), and incubated with PARP1 (2.5 ng/μL final), PARP2 (2.2 ng/μL final) or PARP3 (55 ng/μL final) at room temperature for 30 min.
(§3) Further, activated DNA (2 ng/μL final), […] (60 and 400 μM final for PARP1/2 and PARP3, respectively) and Nicotinamidase (200 ng/μL final) were added and incubated at 37° C. for 45 min. Total reaction volume was 25 μL.
(§4) Controls were executed as follows: • 1. Control of 0% inhibition contained reaction sample without inhibitor; • 2. Control of 100% inhibition of PARP1/2/3 activity contained reaction sample without β-NAD; and • 3. Control of 100% inhibition of DNA-dependent activity contained reaction sample without DNA.
(§5) After the plates were cooled down to room temperature, 25 μL of Merck proprietary reagent was added to the reaction mixture and incubated at mild shaking for 45 min. Fluorescence measurement was carried out at excitation wavelength of 410 nm and emission of 460 nm in Fluostar Omega microplate reader (BMG Labtech).
(§6) Total PARP1/2/3 activity was calculated as a difference between control (1) and control (2). DNA-independent activity was calculated as a difference between control (1) and control (3). DNA-dependent activity was calculated as the difference between the total PARP1/2/3 activity and DNA-independent activity. […] However, potentially up to 30% of PARP1 activity can be DNA-independent.
(§7) Inhibitory values were converted into percentages according to controls. Controls (1) and (3) were used in the case of PARP1, because only inhibition of DNA-dependent activity was observed, and the results are shown in FIG. 2. Controls (1) and (2) were used in the case of PARP2/3, because inhibition of total PARP2/3 activity (both DNA-dependent and DNA-independent reactions) was observed. FIGS. 3 and 4 show the percentage inhibition of PARP1 and PARP2 for different concentrations of aurothiomalate and aurothioglucose, respectively.

For data set [2], the target named is T2, human full length active PARP1 (Homo sapiens, UniProt P09874).
T2 construct: human full length active PARP1 (CS207770, Merck); purchased Merck CS207770
T2 sequence (P09874 whole entry): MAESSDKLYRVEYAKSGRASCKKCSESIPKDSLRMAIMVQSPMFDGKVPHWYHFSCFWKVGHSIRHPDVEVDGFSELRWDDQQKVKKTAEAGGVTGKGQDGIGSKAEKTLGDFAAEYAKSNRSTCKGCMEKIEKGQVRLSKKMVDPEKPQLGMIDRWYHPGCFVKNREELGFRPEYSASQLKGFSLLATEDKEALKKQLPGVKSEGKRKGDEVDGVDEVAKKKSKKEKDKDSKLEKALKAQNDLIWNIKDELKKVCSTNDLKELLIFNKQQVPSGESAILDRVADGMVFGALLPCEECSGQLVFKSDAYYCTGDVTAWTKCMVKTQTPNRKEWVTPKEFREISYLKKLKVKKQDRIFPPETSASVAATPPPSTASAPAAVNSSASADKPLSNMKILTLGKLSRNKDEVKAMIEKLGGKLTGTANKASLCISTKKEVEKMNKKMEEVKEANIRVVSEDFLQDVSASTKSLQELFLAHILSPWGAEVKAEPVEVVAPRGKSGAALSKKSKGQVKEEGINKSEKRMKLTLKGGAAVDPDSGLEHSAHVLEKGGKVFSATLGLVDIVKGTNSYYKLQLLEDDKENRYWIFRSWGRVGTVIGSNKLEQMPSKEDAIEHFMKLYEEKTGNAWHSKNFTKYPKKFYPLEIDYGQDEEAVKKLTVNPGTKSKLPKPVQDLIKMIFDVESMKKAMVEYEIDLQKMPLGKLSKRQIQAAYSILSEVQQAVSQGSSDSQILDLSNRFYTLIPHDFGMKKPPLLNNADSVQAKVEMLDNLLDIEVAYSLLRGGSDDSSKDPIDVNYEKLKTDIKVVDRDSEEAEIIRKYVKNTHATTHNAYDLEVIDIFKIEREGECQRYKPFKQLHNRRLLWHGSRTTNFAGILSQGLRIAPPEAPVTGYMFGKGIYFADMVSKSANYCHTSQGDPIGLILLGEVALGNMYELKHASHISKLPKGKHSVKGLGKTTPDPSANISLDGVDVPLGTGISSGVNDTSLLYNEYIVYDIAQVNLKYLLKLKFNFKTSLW
Description: PARP inhibitor assay, fluorescence-based (PARP1 Enzyme Activity Assay kit), PARP1. Type of data set: biochemical.
Source text: as §1, §2, §3, §4, §5, §6, §7

The target in data set [3] is T3, human full length active PARP3 (Homo sapiens, UniProt Q9Y6F1).
T3 construct: human full length active PARP1 (CS207770, Merck), PARP2 (ab198766, Abeam) and PARP3 (ab79638, Abeam) proteins; purchased Abcam ab79638
T3 sequence (Q9Y6F1 1-533): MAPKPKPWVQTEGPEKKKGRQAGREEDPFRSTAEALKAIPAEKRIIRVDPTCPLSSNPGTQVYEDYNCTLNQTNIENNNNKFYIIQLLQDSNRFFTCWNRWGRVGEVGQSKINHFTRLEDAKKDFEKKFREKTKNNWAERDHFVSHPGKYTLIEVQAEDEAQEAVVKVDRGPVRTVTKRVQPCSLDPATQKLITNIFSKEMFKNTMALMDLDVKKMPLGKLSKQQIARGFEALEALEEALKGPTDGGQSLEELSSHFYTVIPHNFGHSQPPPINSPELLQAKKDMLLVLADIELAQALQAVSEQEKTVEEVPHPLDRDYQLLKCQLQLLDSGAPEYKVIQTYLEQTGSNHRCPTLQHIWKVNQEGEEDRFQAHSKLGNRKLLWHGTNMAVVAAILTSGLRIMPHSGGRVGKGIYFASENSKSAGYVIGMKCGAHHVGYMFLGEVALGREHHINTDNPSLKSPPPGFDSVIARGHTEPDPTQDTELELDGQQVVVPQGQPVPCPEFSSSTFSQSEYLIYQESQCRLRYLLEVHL
Description: PARP inhibitor assay, fluorescence-based, PARP3. Type of data set: biochemical. To be noted: for IC50: inhibition of total PARP3 activity (controls 1 and 2), 400 μM β-NAD.
Source text: as §1, §2, §3, §4, §5, §6
Inhibitory values were converted into percentages according to controls. […]

Data set [4] concerns rats fed a high adenine/low protein diet (chronic kidney disease). Description: Bone density in rat model on high adenine/low protein diet (CKD), SEM/TEM of long limb bone cross sections. Conditions: 50 mg/kg/day for 6 weeks; cortical area of long limb bone cross section; vs control and untreated CKD-diet rats; FIG. 8b. Type of data set: in vivo. How it is done: The effects of minocycline on bone calcification processes were evaluated in an in vivo rat model. The rats were fed a high adenine/low protein diet in order to develop chronic kidney disease (CKD) and associated hyperphosphatemia and medial vascular calcification. It is also expected to cause increased rates of bone turnover, allowing the inventors to examine whether inhibition of PARP2 enzymatic activity during bone remodelling affected mineralization. 14 of the rats on the high adenine/low protein diet were treated with 50 mg/kg/day of minocycline for 6 weeks. At the end of the study period cross sections of the long limb bone were analysed using scanning electron microscopy (SEM) and transmission electron microscopy (TEM), see FIG. 7, and the area fraction of solid bone in the cortical area of the bone cross section was quantified from these images, see FIG. 8. Statistical significance was determined by Mann-Whitney test.

[5] abbreviates: inhibition of total PARP2 activity (controls 1 and 2), 60 μM β-NAD, read-out: IC50 PARP2.
[6] abbreviates: inhibition of DNA-dependent activity (controls 1 and 3), 60 μM β-NAD, activated DNA, read-out: IC50 PARP1.

Where two headings read alike, the source gives them in different places.

T1 sequence (Q9UGN5 whole entry): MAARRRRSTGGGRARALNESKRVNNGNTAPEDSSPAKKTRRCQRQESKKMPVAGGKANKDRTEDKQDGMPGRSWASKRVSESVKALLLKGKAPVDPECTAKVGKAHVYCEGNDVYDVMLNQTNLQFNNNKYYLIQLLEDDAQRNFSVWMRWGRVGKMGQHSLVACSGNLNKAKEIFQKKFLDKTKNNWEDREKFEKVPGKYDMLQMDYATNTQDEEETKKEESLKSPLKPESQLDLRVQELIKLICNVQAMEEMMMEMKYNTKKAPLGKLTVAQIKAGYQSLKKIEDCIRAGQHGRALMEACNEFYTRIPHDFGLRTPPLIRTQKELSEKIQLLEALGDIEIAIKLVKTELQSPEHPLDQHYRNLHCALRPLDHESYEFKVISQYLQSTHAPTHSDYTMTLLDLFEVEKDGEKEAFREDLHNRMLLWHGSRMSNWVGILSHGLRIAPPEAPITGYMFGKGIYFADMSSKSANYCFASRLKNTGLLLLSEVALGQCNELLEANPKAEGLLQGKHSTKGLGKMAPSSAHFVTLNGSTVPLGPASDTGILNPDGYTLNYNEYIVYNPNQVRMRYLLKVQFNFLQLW

On to `CC(=O)OC[C@H]1O[C@@H]([S-])[C@H](OC(C)=O)[C@@H](OC(C)=O)[C@@H]1OC(C)=O.CCP(CC)CC.[Au+]` [Auranofin], for which the “PARP2 inhibition (in words)” value in data set [1] was “only inhibits PARP1 and PARP2 at very high concentrations”. Moreover, the IC50 in data set [1] (setting [5]) amounted to 1160 ± 81 nM; in data set [2] (setting [6]) it was 1400 ± 98 nM. Also, the “PARP1 inhibition (in words)” value in data set [2] (FIG. 2 and Table 1) is “only inhibits PARP1 and PARP2 at very high concentrations”.
As for `OC[C@H]1OC([S][Au])[C@H](O)[C@@H](O)[C@@H]1O` (some centres unmarked) [Aurothioglucose], the “PARP2 inhibition (in words)” value in data set [1] was “not inhibited”. In data set [1] (setting [5]), the concentration for half-maximal inhibition (IC50) was 4450 ± 623 nM. Moreover, in data set [2], the “DNA-independent PARP1 activity in the presence of the compound” value was “maintained” and the IC50 was determined as 120 ± 7 nM. In data set [3], the “PARP3 inhibition (in words)” value was “not inhibited” and 1140 ± 20 nM corresponded to half-maximal inhibition (IC50).
In the case of `CN(C)c1ccc(O)c2c1C[C@H]1C[C@H]3[C@H](N(C)C)C(O)=C(C(N)=O)C(=O)[C@@]3(O)C(O)=C1C2=O` [minocycline], the half-maximal inhibitory concentration (IC50) in data set [1] is 2800 nM; in data set [2] (assay of Example 1, FIG. 6, read-out: IC50 PARP1), 204000 nM. Further, the “PARP2 vs PARP1 selectivity factor” value in data set [1] (ratio of PARP1 and PARP2 IC50) is “greater than 70 ×”. In addition, the “reduction in the area fraction of solid bone” value in data set [4] came out at 25%.
Regarding Sodium Aurothiomalate, in data set [1], the “PARP2 inhibition (in words)” value was “not inhibited”. For the same compound, the results for the IC50 in data set [1] (setting [5]), in data set [2] (setting [6]) and in data set [3] were 1190 ± 190 nM, 48 ± 7 nM and 1160 ± 93 nM, respectively. In data set [2], the “DNA-independent PARP1 activity in the presence of the compound” value is given as “maintained”. Besides, the “PARP3 inhibition (in words)” value in data set [3] is recorded as “not inhibited”.
